Measurements published in PubChem BioAssay (NCI).
Values joined by “and” are separate entries in the source; they are usually repeats but may differ in a detail not shown here. Equal entries are not always repeated.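 Results reflect a 48-hour exposure of cells in 96-well plates to compound at five concentrations. The concentration for 50% growth inhibition is given as GI50. TGI marks complete inhibition of growth.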

tested on: HOP-92 NSCLC; assay: growth of human tumour cells (NCI), 48 h

SMILES | GI50 | TGI
COc1cc2c(cc1OCCCN1CCN(CCCOc3cc4c(cc3OC)C(=O)N3CC(F)(F)C[C@H]3C=N4)CC1)N=C[C@@H]1CC(F)(F)CN1C2=O | 6.14 µM | 76.3 µM
COC(=O)C1=CN(CC2=CC(=O)C(C)=CC2=O)C=C(C(=O)OC)C1c1ccccc1OC | 9.31 µM | 21.9 µM
O/N=C1\CCCCC1C(NO)c1ccccc1 (stereo not drawn) | – | > 100 µM
COC(=O)/C=C/c1cc(OC(C)=O)c2c(c1)C(C(=O)OC)C(c1ccc(OC(C)=O)c(OC(C)=O)c1)O2 (stereo not drawn) | 0.35 µM | 24.8 µM
COc1cc(OC)c(OC)cc1/C=N/NC(=O)N/N=C/c1cc(OC)c(OC)cc1OC | – | > 100 µM
O=C(O)c1ccc(CNCc2ccccc2)cc1 | – | > 100 µM
C=C(C)C(C1C=C(CCC(C=O)=C(C)C)C(=O)O1)C1(OC)C=C(C)C(=O)O1 (stereo not drawn) | > 100 µM | > 100 µM
CCOC(=O)Nc1c(C)nc2ccccn12 | > 100 µM | > 100 µM
Cc1cc2c(cc1C)[n+](=O)cc(C(=O)C/C(=N/NC(=S)NN)C(=O)Nc1cccc(C(F)(F)F)c1)n2[O-] | – | > 100 µM
COCOCCC#CCO | – | > 100 µM
O=[N+]([O-])c1ccccc1N=Nc1c(O)[nH]c2c(Cl)cc(Cl)cc12 | – | > 68.2 µM
NC(=S)N/N=C/c1ncccc1O | 6.55 µM | 31.2 µM and 90.7 µM
COC(=N)c1csc(C2OC(CO)C(O)C2O)n1 (stereo not drawn) | – | > 100 µM
O=C(CC(=O)Nc1ccccc1)NNC(Sc1ccccc1)c1cc(N=Nc2ccc(Br)cc2)ccc1O (stereo not drawn) | – | > 10 µM
Cc1cc(C(=O)CSC(=S)SC(C)(C)C)ccc1Cl | – | 70.3 µM
C=CC12CCN(CC1)C(C(O)c1ccnc3ccc(OC)cc13)C2 (stereo not drawn) | 35.2 µM | > 100 µM
Nc1c(S(=O)(=O)c2ccc(Cl)cc2)c2nc3ccccc3nc2n2ccnc12 | – | > 100 µM
O=C(Nc1nc(-c2c[nH]c3ccccc23)cs1)c1n[nH]c(=O)c2ccccc12 | > 30.6 µM | > 100 µM
CN(C)CCN1CCC(Cc2ccccc2)CC1 | 41.4 µM | > 80 µM
COc1cc2c3c(n(C)c(=O)c2cc1OC)-c1cc2c(cc1C3=O)OCO2 | – | > 100 µM
COc1ccc(/C=C\c2cc(OC)c(OC)c(OC)c2)cc1OCC(=O)O | – | 55.7 µM
CO[C@@H]1CC[C@]2(C)OC[C@H](C)[C@@H]3C[C@@H](C)[C@@H](OC(C)=O)[C@@H]4[C@H]3[C@@H]2O[C@H]4C[C@@]1(C)O | > 100 µM | > 100 µM
Oc1oc(C(=C2N=c3ccccc3=N2)c2ccc(Cl)cc2)c(O)c1-c1ccc(Cl)cc1 | – | 4.47 µM
O=C(Nc1ncc(Cc2cccc(C(F)(F)F)c2)s1)c1ccc2c(c1)OCCO2 | 2.97 µM | > 72.2 µM

tested on: SK-OV-3 ovarian; assay: growth of human tumour cells (NCI), 48 h

SMILES | GI50 | TGI
COc1cc2c(cc1OCCCN1CCN(CCCOc3cc4c(cc3OC)C(=O)N3CC(F)(F)C[C@H]3C=N4)CC1)N=C[C@@H]1CC(F)(F)CN1C2=O | 8.64 µM | > 100 µM
COC(=O)C1=CN(CC2=CC(=O)C(C)=CC2=O)C=C(C(=O)OC)C1c1ccccc1OC | > 100 µM | > 100 µM
O/N=C1\CCCCC1C(NO)c1ccccc1 (stereo not drawn) | – | > 100 µM
COC(=O)/C=C/c1cc(OC(C)=O)c2c(c1)C(C(=O)OC)C(c1ccc(OC(C)=O)c(OC(C)=O)c1)O2 (stereo not drawn) | 2.46 µM | > 73.9 µM
COc1cc(OC)c(OC)cc1/C=N/NC(=O)N/N=C/c1cc(OC)c(OC)cc1OC | – | > 100 µM
O=C(O)c1ccc(CNCc2ccccc2)cc1 | – | > 100 µM
C=C(C)C(C1C=C(CCC(C=O)=C(C)C)C(=O)O1)C1(OC)C=C(C)C(=O)O1 (stereo not drawn) | > 100 µM | > 100 µM
CCOC(=O)Nc1c(C)nc2ccccn12 | > 100 µM | > 100 µM
Cc1cc2c(cc1C)[n+](=O)cc(C(=O)C/C(=N/NC(=S)NN)C(=O)Nc1cccc(C(F)(F)F)c1)n2[O-] | – | > 100 µM
COCOCCC#CCO | – | > 100 µM
O=[N+]([O-])c1ccccc1N=Nc1c(O)[nH]c2c(Cl)cc(Cl)cc12 | – | > 100 µM
NC(=S)N/N=C/c1ncccc1O | 4.76 µM | 49.1 µM and 130 µM
COC(=N)c1csc(C2OC(CO)C(O)C2O)n1 (stereo not drawn) | – | > 100 µM
O=C(CC(=O)Nc1ccccc1)NNC(Sc1ccccc1)c1cc(N=Nc2ccc(Br)cc2)ccc1O (stereo not drawn) | – | > 10 µM
Cc1cc(C(=O)CSC(=S)SC(C)(C)C)ccc1Cl | – | 94.5 µM
C=CC12CCN(CC1)C(C(O)c1ccnc3ccc(OC)cc13)C2 (stereo not drawn) | > 100 µM | > 100 µM
Nc1c(S(=O)(=O)c2ccc(Cl)cc2)c2nc3ccccc3nc2n2ccnc12 | – | > 100 µM
O=C(Nc1nc(-c2c[nH]c3ccccc23)cs1)c1n[nH]c(=O)c2ccccc12 | 12.6 µM | > 100 µM
CN(C)CCN1CCC(Cc2ccccc2)CC1 | > 80 µM | > 80 µM
COc1cc2c3c(n(C)c(=O)c2cc1OC)-c1cc2c(cc1C3=O)OCO2 | – | > 100 µM
COc1ccc(/C=C\c2cc(OC)c(OC)c(OC)c2)cc1OCC(=O)O | – | 94 µM
CO[C@@H]1CC[C@]2(C)OC[C@H](C)[C@@H]3C[C@@H](C)[C@@H](OC(C)=O)[C@@H]4[C@H]3[C@@H]2O[C@H]4C[C@@]1(C)O | > 100 µM | > 100 µM
Oc1oc(C(=C2N=c3ccccc3=N2)c2ccc(Cl)cc2)c(O)c1-c1ccc(Cl)cc1 | – | 11.3 µM
O=C(Nc1ncc(Cc2cccc(C(F)(F)F)c2)s1)c1ccc2c(c1)OCCO2 | 0.746 µM | 46.6 µM

tested on: TK-10 renal; assay: growth of human tumour cells (NCI), 48 h

SMILES | GI50 | TGI
COc1cc2c(cc1OCCCN1CCN(CCCOc3cc4c(cc3OC)C(=O)N3CC(F)(F)C[C@H]3C=N4)CC1)N=C[C@@H]1CC(F)(F)CN1C2=O | 4.38 µM | 12.9 µM
COC(=O)C1=CN(CC2=CC(=O)C(C)=CC2=O)C=C(C(=O)OC)C1c1ccccc1OC | 16.7 µM | 35.4 µM
O/N=C1\CCCCC1C(NO)c1ccccc1 (stereo not drawn) | – | > 100 µM
COC(=O)/C=C/c1cc(OC(C)=O)c2c(c1)C(C(=O)OC)C(c1ccc(OC(C)=O)c(OC(C)=O)c1)O2 (stereo not drawn) | 8.98 µM | > 93.2 µM
COc1cc(OC)c(OC)cc1/C=N/NC(=O)N/N=C/c1cc(OC)c(OC)cc1OC | – | > 100 µM
O=C(O)c1ccc(CNCc2ccccc2)cc1 | – | > 100 µM
C=C(C)C(C1C=C(CCC(C=O)=C(C)C)C(=O)O1)C1(OC)C=C(C)C(=O)O1 (stereo not drawn) | > 100 µM | > 100 µM
CCOC(=O)Nc1c(C)nc2ccccn12 | > 100 µM | > 100 µM
Cc1cc2c(cc1C)[n+](=O)cc(C(=O)C/C(=N/NC(=S)NN)C(=O)Nc1cccc(C(F)(F)F)c1)n2[O-] | – | > 100 µM
COCOCCC#CCO | – | > 100 µM
O=[N+]([O-])c1ccccc1N=Nc1c(O)[nH]c2c(Cl)cc(Cl)cc12 | – | 96.2 µM
NC(=S)N/N=C/c1ncccc1O | 11.2 µM | 292 µM
